Patent US20100210584A1, “LIQUID OR PASTE COMPOSITIONS INTENDED TO PROVIDE ELEMENTS ESSENTIAL FOR THE SYNTHESIS AND FORMATION OF PROTEOGLYCANS, IN PARTICULAR, FOR THE TREATMENT OF CARTILAGE DEGRADATION” (priority 2007, published 2010)
Where two headings read alike, the source gives them in different places. One block for each compound: values may come before it.

How the values were obtained:
[1] = placebo-controlled; cited from earlier work
[2] = tested on: arthritic knee joint; details: three to five injections at one-week intervals, on average; cited from earlier work
[3] = beyond a pH of 7.0; cited from earlier work
[4] = cited from earlier work
[5] = cited from earlier work; remark: listed apart in the source
[6] = taken orally; cited from earlier work
[7] = 800 to 1200 mg/day; cited from earlier work
[8] = Coloring (Maillard reaction) of aqueous solutions on storage; type: physicochemical; details: 6.0% in water by total weight of the composition
Procedure: At the chemical level, glucosamine, which can be of either natural or synthetic origin, is a glucose molecule to which an amino grouping has bonded. Consequently, in water without the addition of sugar, this molecule automatically leads to the appearance of a brown color of the solution by the condensation reaction of the different glucosamine molecules together. This appears clearly in an aqueous 7.5% glucosamine solution. After 8 months at 40° C., the solution takes on a caramel hue.
Three solutions have been produced, each containing 7.5% glucosamine by weight with respect to the total weight of the composition and 6.0% chondroitin sulfate by weight with respect to the total weight of the composition. In two solutions, anhydrous citric acid was added before the introduction of chondroitin sulfate. One of the solutions was heated at 100° C. for 10 minutes.

[9] = humans, dependent on the molecular weight; cited from earlier work
[10] = animals, labeled chondroitin; cited from earlier work

Compound: CC(=O)Oc1cccc2c1C(=O)c1c(OC(C)=O)cc(C(=O)O)cc1C2=O [Diacerein]
articular joint space [1]: significant decrease in the articular joint space

Compound: hyaluronic acid
duration of efficacy [2]: 8-9 months

Compound: N[C@H]1C(O)O[C@H](CO)[C@@H](O)[C@@H]1O (stereo partly shown) [glucosamine]
degradation [3]: degrades rapidly | efficacy on joint pain and swelling compared with ibuprofen ([4]; beginning in the second week of treatment): more effective than ibuprofen | articular joint space ([4]; in vivo): preserves the articular joint space | solubility in water and in an alcohol medium [5]: highly soluble | absorption [6]: ~90% | time until maximum concentration is reached [6]: 8 h

intensity of coloring compared with a pure 7.5% glucosamine solution [8]: ten times less intense
Compound: chondroitin sulfate
Lequesne index [7]: improves the Lequesne index | articular joint space [7]: preserves the articular joint space | mobility [7]: improves mobility | pain [7]: reduces pain | absorption [9]: around 15% | solubility in alcohols ([5]; ethanol, propanol-1 and isopropanol): insoluble | absorption [10]: more than 66%
